# Measurements reported in patent publication US7932269B2, “Sulfonamides as orexin antagonists” (Hoffmann-La Roche Inc., priority 2008, dated 2011).
# Target: T1, human orexin-2 (hOX2) receptors (Homo sapiens, UniProt O43614)
# T1 construct: expressed in transfected cells
# T1 sequence (O43614 1-444): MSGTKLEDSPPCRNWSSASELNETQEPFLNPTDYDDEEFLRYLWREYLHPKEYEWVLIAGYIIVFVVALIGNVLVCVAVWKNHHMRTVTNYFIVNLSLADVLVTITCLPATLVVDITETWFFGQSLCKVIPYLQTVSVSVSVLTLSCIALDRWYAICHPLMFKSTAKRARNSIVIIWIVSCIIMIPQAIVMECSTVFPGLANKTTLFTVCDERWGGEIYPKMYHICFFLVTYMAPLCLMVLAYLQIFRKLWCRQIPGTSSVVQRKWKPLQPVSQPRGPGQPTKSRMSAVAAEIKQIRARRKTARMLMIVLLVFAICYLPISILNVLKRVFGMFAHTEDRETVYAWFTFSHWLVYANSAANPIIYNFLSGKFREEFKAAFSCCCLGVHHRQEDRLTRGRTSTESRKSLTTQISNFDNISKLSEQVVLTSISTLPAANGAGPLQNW
# Assay: Intracellular Ca2+ mobilization assay (FLIPR), orexin-A as agonist
# Format: cell-based
# Conditions: CHO(dHFr-) cells stably expressing hOX2; antagonist applied 25 min before EC80 of orexin-A; Kb=IC50/(1+[A]/EC50); read-out: Kb (μM) OX2R (human)
# Description: Intracellular Ca^2+ Mobilization Assay
# The Chinese Hamster Ovary (dHFr-) mutant cell line stably expressing human orexin-1 (hOX1) or human orexin-2 (hOX2) receptors were maintained in Dulbecco's Modified Eagle Medium (1X) with GlutaMax™ 1, 4500 mg/L D-Glucose and Sodium Pyruvate (Catalog No. 31966-021, Invitrogen, Carlsbad, Calif.), 5% dialyzed fetal calf serum (Catalog No. 26400-044), 100 μg/ml penicillin and 100 μg/ml streptomycin. The cells were seeded at 5×10^4 cells/well in the poly-D-lysine treated, 96-well, black/clear-bottomed plates (Catalog No. BD356640, BD Biosciences, Palo Alto, Calif.). 24 h later, the cells were loaded for 1 hr at 37° C. with 4 μM Flou-4 acetoxymethyl ester (Catalog No. F-14202, Molecular Probes, Eugene, Oreg.) in FLIPR buffer (1×HBSS, 20 mM HEPES, 2.5 mM Probenecid). Hanks' Balanced Salt Solution (HBSS) (10X) (catalog No. 14065-049) and HEPES (1M) (catalog No. 15630-056) were purchased from Invitrogen, Carlsbad, Calif. Probenecid (250 mM) (catalog No. P8761) was from Sigma, Buchs, Switzerland. The cells were washed five times with FLIPR buffer to remove excess dye and intracellular calcium mobilization, [Ca^2+] were measured using a Fluorometric Imaging Plate Reader (FLIPR-96, Molecular Devices, Menlo Park, Calif.) as described previously (Malherbe et al., Mol. Pharmacol., 64, 823-832, 2003). Orexin A (catalog No.1455, Toris Cookson Ltd, Bristol, UK) was used as agonist. Orexin A ([…] stock solution in DMSO) was diluted in FLIPR buffer +0.1% BSA. The EC50 and EC80 values of orexin-A were measured daily from standard agonist concentration-response curves in CHO(dHFr-)-OX1R and —OX2R cell lines. All compounds were dissolved in 100% DMSO. Inhibition curves were determined by addition of 11 concentrations (0.0001-10 μM) of inhibitory compounds and using EC80 value of orexin-A as agonist (a concentration which gave 80% of max agonist response, determined daily). The antagonists were applied 25 min (incubation at 37° C.) before the application of the agonist. Responses were measured as peak increase in fluorescence minus basal, normalized to the maximal stimulatory effect induced by EC80 value of orexin-A or orexin-B. Inhibition curves were fitted according to the Hill equation: y=100/(1+(x/1C50)^nH), where nH=slope factor using Excel-fit 4 software (Microsoft). Kb values were calculated according to the following equation Kb=IC50/(1+[A]/EC50) where A is the concentration of agonist added which is very close to agonist EC80 value, and IC50 and EC50 values were derived from the antagonist inhibition and orexin-A or B agonist curves, respectively.
row,Kb [µM],Structure (SMILES)
1,0.0017,"COc1ccc(S(=O)(=O)N(CC(=O)N2CCCC2c2ccc(F)cc2)c2ccc(Cl)cc2)cc1 (centres unmarked) [Example 22, N-(4-Chloro-phenyl)-N-{2-[2-(4-fluoro-phenyl)-pyrrolidin-1-yl]-2-oxo-ethyl}-4-methoxy-benzenesulfonamide]"
2,0.0005,"Cc1cccc(S(=O)(=O)N(CC(=O)N2CCCC2c2ccccc2)c2ccc(Cl)cc2)c1 (centres unmarked) [Example 11, N-(4-Chloro-phenyl)-3-methyl-N-[2-oxo-2-(2-phenyl-pyrrolidin-1-yl)-ethyl]-benzenesulfonamide]"
3,0.0007,"O=C(CN(c1ccc(Cl)cc1)S(=O)(=O)c1ccccc1Cl)N1CCCC1c1ccc(F)cc1 (centres unmarked) [Example 7, 2-Chloro-N-(4-chloro-phenyl)-N-{2-[2-(4-fluoro-phenyl)-pyrrolidin-1-yl]-2-oxo-ethyl}-benzenesulfonamide]"
4,0.002,"O=C(CN(c1ccc(Cl)cc1)S(=O)(=O)c1ccc(Cl)cc1)N1CCCC1c1ccc(F)cc1 (centres unmarked) [Example 19, 4-Chloro-N-(4-chloro-phenyl)-N-{2-[2-(4-fluoro-phenyl)-pyrrolidin-1-yl]-2-oxo-ethyl}-benzenesulfonamide]"
5,0.005,"COc1ccc(S(=O)(=O)N(CC(=O)N2CCCC2c2ccc(F)cc2)c2ccccc2OC)cc1 (centres unmarked) [Example 26, N-{2-[2-(4-Fluoro-phenyl)-pyrrolidin-1-yl]-2-oxo-ethyl}-4-methoxy-N-(2-methoxy-phenyl)-benzenesulfonamide]"
6,0.0026,"COc1ccc(N(CC(=O)N2CCCC2c2ccc(F)cc2)S(=O)(=O)c2ccc(OC)cc2)cc1 (centres unmarked) [Example 41, N-{2-[2-(4-Fluoro-phenyl)-pyrrolidin-1-yl]-2-oxo-ethyl}-4-methoxy-N-(4-methoxy-phenyl)-benzenesulfonamide]"
7,0.0032,"COc1ccc(S(=O)(=O)N(CC(=O)N2CCCC2c2ccccc2)c2ccccc2OC)cc1 (centres unmarked) [Example 43, 4-Methoxy-N-(2-methoxy-phenyl)-N-[2-oxo-2-(2-phenyl-pyrrolidin-1-yl)-ethyl]-benzenesulfonamide]"
8,0.0009,"O=C(CN(c1ccc(Cl)cc1)S(=O)(=O)c1ccccc1F)N1CCCC1c1ccc(F)cc1 (centres unmarked) [Example 16, N-(4-Chloro-phenyl)-2-fluoro-N-{2-[2-(4-fluoro-phenyl)-pyrrolidin-1-yl]-2-oxo-ethyl}-benzenesulfonamide]"
9,0.0049,"COc1ccc(S(=O)(=O)N(CC(=O)N2CCCC2c2ccccc2)c2ccc(Cl)cc2)cc1 (centres unmarked) [Example 2, N-(4-Chloro-phenyl)-4-methoxy-N-[2-oxo-2-(2-phenyl-pyrrolidin-1-yl)-ethyl]-benzenesulfonamide]"
10,0.003,"COc1ccc(N(CC(=O)N2CCCC2c2ccccc2)S(=O)(=O)c2ccc(OC)cc2)cc1 (centres unmarked) [Example 27, 4-Methoxy-N-(4-methoxy-phenyl)-N-[2-oxo-2-(2-phenyl-pyrrolidin-1-yl)-ethyl]-benzenesulfonamide]"
11,0.0012,"O=C(CN(c1ccc(Cl)cc1)S(=O)(=O)c1ccccc1Cl)N1CCCC1c1ccccc1 (centres unmarked) [Example 12, 2-Chloro-N-(4-chloro-phenyl)-N-[2-oxo-2-(2-phenyl-pyrrolidin-1-yl)-ethyl]-benzenesulfonamide]"
12,0.0005,"Cc1cccc(S(=O)(=O)N(CC(=O)N2CCCC2c2ccc(F)cc2)c2ccc(Cl)cc2)c1 (centres unmarked) [Example 24, N-(4-Chloro-phenyl)-N-{2-[2-(4-fluoro-phenyl)-pyrrolidin-1-yl]-2-oxo-ethyl}-3-methyl-benzenesulfonamide]"
13,0.0003,"COc1ccccc1S(=O)(=O)N(CC(=O)N1CCCC1c1ccc(F)cc1)c1ccc(Cl)cc1 (centres unmarked) [Example 52, N-(4-Chloro-phenyl)-N-{2-[2-(4-fluoro-phenyl)-pyrrolidin-1-yl]-2-oxo-ethyl}-2-methoxy-benzenesulfonamide]"
14,0.0096,"COc1ccc(S(=O)(=O)N(CC(=O)N2CCCC2c2ccccc2)c2ccc(F)cc2)cc1 (centres unmarked) [Example 38, N-(4-Fluoro-phenyl)-4-methoxy-N-[2-oxo-2-(2-phenyl-pyrrolidin-1-yl)-ethyl]-benzenesulfonamide]"
15,0.0005,"O=C(CN(c1ccc(Cl)cc1)S(=O)(=O)c1ccc(F)cc1)N1CCCC1c1ccc(F)cc1 (centres unmarked) [Example 40, N-(4-Chloro-phenyl)-4-fluoro-N-{2-[2-(4-fluoro-phenyl)-pyrrolidin-1-yl]-2-oxo-ethyl}-benzenesulfonamide]"
16,0.0025,"O=C(CN(c1ccc(Cl)cc1)S(=O)(=O)c1ccccc1F)N1CCCC1c1ccccc1 (centres unmarked) [Example 13, N-(4-Chloro-phenyl)-2-fluoro-N-[2-oxo-2-(2-phenyl-pyrrolidin-1-yl)-ethyl]-benzenesulfonamide]"
17,0.0006,"Cc1ccccc1S(=O)(=O)N(CC(=O)N1CCCC1c1ccc(F)cc1)c1ccc(Cl)cc1 (centres unmarked) [Example 20, N-(4-Chloro-phenyl)-N-{2-[2-(4-fluoro-phenyl)-pyrrolidin-1-yl]-2-oxo-ethyl}-2-methyl-benzenesulfonamide]"
18,0.0005,"Cc1ccccc1S(=O)(=O)N(CC(=O)N1CCCC1c1ccccc1)c1ccc(Cl)cc1 (centres unmarked) [Example 3, N-(4-Chloro-phenyl)-2-methyl-N-[2-oxo-2-(2-phenyl-pyrrolidin-1-yl)-ethyl]-benzenesulfonamide]"
19,0.0022,"O=C(CN(c1ccc(Cl)cc1)S(=O)(=O)c1ccc(Cl)cc1)N1CCCC1c1ccccc1 (centres unmarked) [Example 8, 4-Chloro-N-(4-chloro-phenyl)-N-[2-oxo-2-(2-phenyl-pyrrolidin-1-yl)-ethyl]-benzenesulfonamide]"
20,0.0042,"COc1ccc(S(=O)(=O)N(CC(=O)N2CCCC2c2ccccc2)c2ccc(Cl)cc2)cc1 (centres unmarked) [Example 6, N-(4-Chloro-phenyl)-4-methoxy-N-[2-oxo-2-(2-phenyl-pyrrolidin-1-yl)-ethyl]-benzenesulfonamide]"
21,0.0077,"COc1ccc(S(=O)(=O)N(CC(=O)N2CCCC2c2ccccc2)c2cccc(C(F)(F)F)c2)cc1 (centres unmarked) [Example 47, 4-Methoxy-N-[2-oxo-2-(2-phenyl-pyrrolidin-1-yl)-ethyl]-N-(3-trifluoromethyl-phenyl)-benzenesulfonamide]"
22,0.0018,"O=C(CN(c1ccc(Cl)cc1)S(=O)(=O)c1cccc(F)c1)N1CCCC1c1ccc(F)cc1 (centres unmarked) [Example 15, N-(4-Chloro-phenyl)-3-fluoro-N-{2-[2-(4-fluoro-phenyl)-pyrrolidin-1-yl]-2-oxo-ethyl}-benzenesulfonamide]"
23,0.0014,"O=C(CN(c1ccc(Cl)cc1)S(=O)(=O)c1cccc(Cl)c1)N1CCCC1c1ccc(F)cc1 (centres unmarked) [Example 18, 3-Chloro-N-(4-chloro-phenyl)-N-{2-[2-(4-fluoro-phenyl)-pyrrolidin-1-yl]-2-oxo-ethyl}-benzenesulfonamide]"
24,0.0013,"Cc1ccc(S(=O)(=O)N(CC(=O)N2CCCC2c2ccc(F)cc2)c2ccc(Cl)cc2)cc1 (centres unmarked) [Example 23, N-(4-Chloro-phenyl)-N-{2-[2-(4-fluoro-phenyl)-pyrrolidin-1-yl]-2-oxo-ethyl}-4-methyl-benzenesulfonamide]"
25,0.0011,"O=C(CN(c1ccc(Cl)cc1)S(=O)(=O)c1cccc(Cl)c1)N1CCCC1c1ccccc1 (centres unmarked) [Example 4, 3-Chloro-N-(4-chloro-phenyl)-N-[2-oxo-2-(2-phenyl-pyrrolidin-1-yl)-ethyl]-benzenesulfonamide]"
26,0.0077,"COc1ccc(S(=O)(=O)N(CC(=O)N2CCCC2c2ccccc2)c2cccc(F)c2)cc1 (centres unmarked) [Example 36, N-(3-Fluoro-phenyl)-4-methoxy-N-[2-oxo-2-(2-phenyl-pyrrolidin-1-yl)-ethyl]-benzenesulfonamide]"
